The compounds below were run on HT29 cells (assay: Inhibition of cell necrosis (CCK8 method), induced programmed necrosis of HT29 cells). Conditions: Homo sapiens, HT-29; rescue from necrosis induced by TNF-α 20 ng/mL, AT-406 1 μM, Z-VAD-FMK 20 μM; 16-20 hours; CCK-8, OD 450 nm.
Assay type: cell-based
Method in brief: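 HT29 cells in McCOY's 5A with 10% FBS were pre-treated for 30 min with compound (9 fourfold steps, 25000 to 0.38 nM final, 0.25% DMSO). Necrosis was then induced with TNF-α 20 ng/mL, AT-406 1 μM and Z-VAD-FMK 20 μM for 16-20 h. Viability was read by CCK-8 OD450, normalized between uninduced and induced wells, and IC50 was curve-fitted.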

SMILES | IC50 [nM]
Cc1cc(-c2ccnc(NC(=O)c3nnc(Cc4ccccc4)[nH]3)c2)n(C)n1 [Example 27, 5-benzyl-N-(4-(1,3-dimethyl-1H-pyrazol-5-yl)pyridin-2-yl)-4H-1,2,4-triazole-3-carboxamide] | 1000 to 10000
Cc1ccc(OCC2(O)CC2)cc1-c1ccnc(NC(=O)c2nnc(Cc3ccccc3)[nH]2)c1 [Example 159, 5-benzyl-N-(4-(5-((1-hydroxycyclopropyl)methoxy)-2-methylphenyl)pyridin-2-yl)-4H-1,2,4-triazole-3-carboxamide] | ≤ 100
CC(C)(O)CCCCOc1ccc(C(F)(F)F)c(-c2ccnc(NC(=O)c3nnc(CC4CCCCC4)[nH]3)c2)c1 [Example 271, 5-(cyclohexylmethyl)-N-(4-(5-((5-hydroxyl-5-methylhexyl)oxy)-2-(trifluoromethyl)phenyl)pyridin-2-yl)-4H-1,2,4-triazole-3-carboxamide] | ≤ 100
CCOCCCOc1ccc(C)c(-c2ccnc(NC(=O)c3nnc(Cc4ccccc4)[nH]3)c2)c1 [Example 147, 5-benzyl-N-(4-(5-(3-ethoxypropoxy)-2-methylphenyl)pyridin-2-yl)-4H-1,2,4-triazole-3-carboxamide] | ≤ 100
O=C(Nc1cc(-c2cc(OCC3CCOCC3)ccc2F)c(F)cn1)c1nnc(CC2CCCCC2)[nH]1 [Example 328, 5-(cyclohexylmethyl)-N-(5-fluoro-4-(2-fluoro-5-((tetrahydro-2H-pyran-4-yl)methoxy)phenyl)pyridin-2-yl)-4H-1,2,4-triazole-3-carboxamide] | ≤ 100
Cc1ccc(OCCCC(C)(C)O)cc1-c1ccnc(NC(=O)c2nnc(Cc3ccc(Cl)cc3)[nH]2)c1 [Example 189, 5-(4-chlorobenzyl)-N-(4-(5-((4-hydroxy-4-methylpentyl)oxy)-2-methylphenyl)pyridin-2-yl)-4H-1,2,4-triazole-3-carboxamide] | ≤ 100
Cc1ccc(OCCCC(C)(C)O)cc1-c1ccnc(NC(=O)c2nnc(CC3CCC3)[nH]2)c1 [Example 172, 5-(cyclobutylmethyl)-N-(4-(5-((4-hydroxy-4-methylpentyl)oxy)-2-methylphenyl)pyridin-2-yl)-4H-1,2,4-triazole-3-carboxamide] | ≤ 100
Cc1ccc(OCCCC(C)(C)O)cc1-c1cc(NC(=O)c2nnc(Cc3cc(F)ccc3F)[nH]2)ncn1 [Example 436, 5-(2,5-difluorobenzyl)-N-(6-(5-((4-hydroxy-4-methylpentyl)oxy)-2-methylphenyl)pyrimidin-4-yl)-4H-1,2,4-triazole-3-carboxamide] | ≤ 100
Cc1cnc(NC(=O)c2nnc(Cc3ccccc3F)[nH]2)cc1-c1cc(OCCC2CCOCC2)ccc1F [Example 335, N-(4-(2-fluoro-5-(2-(tetrahydro-2H-pyran-4-yl)ethoxy)phenyl)-5-methylpyridin-2-yl)-5-(2-fluorobenzyl)-4H-1,2,4-triazole-3-carboxamide] | 1000 to 10000
CC(C)(O)CCCOc1ccc(C#N)c(-c2ccnc(NC(=O)c3nnc(Cc4ccccc4)[nH]3)c2)c1 [Example 193, 5-benzyl-N-(4-(2-cyano-5-((4-hydroxy-4-methylpentyl)oxy)phenyl)pyridin-2-yl)-4H-1,2,4-triazole-3-carboxamide] | ≤ 100
CCC(O)(CC)CCCOc1ccc(Cl)c(-c2ccnc(NC(=O)c3nnc(CC4CCCC4)[nH]3)c2)c1 [Example 361, N-(4-(2-chloro-5-((4-ethyl-4-hydroxyhexyl)oxy)phenyl)pyridin-2-yl)-5-(cyclopentylmethyl)-4H-1,2,4-triazole-3-carboxamide] | ≤ 100
Cc1ccc(OCCOC(C)(C)C)cc1-c1ccnc(NC(=O)c2nnc(Cc3ccccc3)[nH]2)c1 [Example 64, 5-benzyl-N-(4-(5-(2-(tert-butoxy)ethoxy)-2-methylphenyl)pyridin-2-yl)-4H-1,2,4-triazole-3-carboxamide] | ≤ 100
Cc1ccc(OCCCC(C)(C)O)cc1-c1ccnc(NC(=O)c2nnc(CC3CC3)[nH]2)c1 [Example 171, 5-(cyclopropylmethyl)-N-(4-(5-((4-hydroxy-4-methylpentyl)oxy)-2-methylphenyl)pyridin-2-yl)-4H-1,2,4-triazole-3-carboxamide] | 100 to 1000
CCC(O)(CC)CCCOc1ccc(C)c(-c2cc(NC(=O)c3nnc(CC4CCCCC4)[nH]3)ncc2F)c1 [Example 243, 5-(cyclohexylmethyl)-N-(4-(5-((4-ethyl-4-hydroxyhexyl)oxy)-2-methylphenyl)-5-fluoropyridin-2-yl)-4H-1,2,4-triazole-3-carboxamide] | ≤ 100
O=C(Nc1cc(-c2cc(OCC3CCOCC3)ccc2C(F)(F)F)ncn1)c1nnc(CC2CCCCC2)[nH]1 [Example 457, 5-(cyclohexylmethyl)-N-(6-(5-((tetrahydro-2H-pyran-4-yl)methoxy)-2-(trifluoromethyl)phenyl)pyrimidin-4-yl)-4H-1,2,4-triazole-3-carboxamide] | ≤ 100
Cc1ccc(OCC2CCOCC2)cc1-c1ccnc(NC(=O)c2nnc(CC3CCCC3)[nH]2)c1 [Example 79, 5-(cyclopentylmethyl)-N-(4-(2-methyl-5-((tetrahydro-2H-pyran-4-yl)methoxy)phenyl)pyridin-2-yl)-4H-1,2,4-triazole-3-carboxamide] | ≤ 100

SMILES | IC50 [nM]
O=C(Nc1cc(-c2cc(OCCC3CCOCC3)ccc2C(F)(F)F)ncn1)c1nnc(Cc2ccccc2)[nH]1 [Example 458, 5-benzyl-N-(6-(5-(2-(tetrahydro-2H-pyran-4-yl)ethoxy)-2-(trifluoromethyl)phenyl)pyrimidin-4-yl)-4H-1,2,4-triazole-3-carboxamide] | ≤ 100
Cc1ccc(OCCCC(C)(C)O)cc1-c1ccnc(NC(=O)c2nnc(CC3CCOCC3)[nH]2)c1 [Example 177, N-(4-(5-((4-hydroxy-4-methylpentyl)oxy)-2-methylphenyl)pyridin-2-yl)-5-((tetrahydro-2H-pyran-4-yl)methyl)-4H-1,2,4-triazole-3-carboxamide] | ≤ 100
CC(C)(C)OCCOc1ccc(C#N)c(-c2ccnc(NC(=O)c3nnc(Cc4ccccc4)[nH]3)c2)c1 [Example 74] | 100 to 1000
CCOCCOc1ccc(C(F)(F)F)c(-c2ccnc(NC(=O)c3nnc(CC4CCCC4)[nH]3)c2)c1 [Example 285, 5-(cyclopentylmethyl)-N-(4-(5-(2-ethoxyethoxy)-2-(trifluoromethyl)phenyl)pyridin-2-yl)-4H-1,2,4-triazole-3-carboxamide] | ≤ 100
CC(C)(O)COc1ccc(Cl)c(-c2ccnc(NC(=O)c3nnc(Cc4ccccc4F)[nH]3)c2)c1 [Example 364, 5-(2-fluorobenzyl)-N-(4-(2-chloro-5-(2-hydroxyl-2-methylpropoxy)phenyl)pyridin-2-yl)-4H-1,2,4-triazole-3-carboxamide] | ≤ 100
C#Cc1ccc(OCCOC(C)(C)C)cc1-c1ccnc(NC(=O)c2nnc(Cc3ccccc3)[nH]2)c1 [Example 311, 5-benzyl-N-(4-(5-(2-(tert-butoxy)ethoxy)-2-ethynylphenyl)pyridin-2-yl)-4H-1,2,4-triazole-3-carboxamide] | 100 to 1000
CC(C)n1nc(C(F)(F)F)cc1-c1ccnc(NC(=O)c2nnc(Cc3ccccc3)[nH]2)c1 [Example 32, 5-benzyl-N-(4-(1-isopropyl-3-(trifluoromethyl)-1H-pyrazol-5-yl)pyridin-2-yl)-4H-1,2,4-triazole-3-carboxamide] | > 10000
Cc1ccc(OCCCC(C)(C)O)cc1-c1ccnc(NC(=O)c2nnc(CC3CCCCC3)[nH]2)c1 [Example 175, 5-(cyclohexylmethyl)-N-(4-(5-((4-hydroxy-4-methylpentyl)oxy)-2-methylphenyl)pyridin-2-yl)-4H-1,2,4-triazole-3-carboxamide] | ≤ 100
O=C(Nc1cc(-c2cc(OCC3CCOCC3)ccc2C(F)(F)F)ccn1)c1nnc(Cc2ccccc2)[nH]1 [Example 299, 5-benzyl-N-(4-(5-((tetrahydro-2H-pyran-4-yl)methoxy)-2-(trifluoromethyl)phenyl)pyridin-2-yl)-4H-1,2,4-triazole-3-carboxamide] | ≤ 100
COCCOc1ccc(C(F)(F)F)c(-c2ccnc(NC(=O)c3nnc(Cc4ccccc4)[nH]3)c2)c1 [Example 279, 5-benzyl-N-(4-(5-(2-methoxyethoxy)-2-(trifluoromethyl)phenyl)pyridin-2-yl)-4H-1,2,4-triazole-3-carboxamide] | ≤ 100
CC(C)(O)CCCOc1ccc(Cl)c(-c2ccnc(NC(=O)c3nnc(Cc4cc(-c5ccccc5)ccc4F)[nH]3)c2)c1 [Example 504, N-(4-(2-chloro-5-((4-hydroxy-4-methylpentyl)oxy)phenyl)pyridin-2-yl)-5-((4-fluoro-[1,1′-biphenyl]-3-yl)methyl)-4H-1,2,4-triazole-3-carboxamide] | 100 to 1000
Cc1ccc(OCCCC(C)(C)O)cc1-c1ccnc(NC(=O)c2nnc(Cc3ccccc3F)[nH]2)c1 [Example 183, 5-(2-fluorobenzyl)-N-(4-(5-((4-hydroxy-4-methylpentyl)oxy)-2-methylphenyl)pyridin-2-yl)-4H-1,2,4-triazole-3-carboxamide] | ≤ 100
O=C(Nc1cc(C2CCOCC2)ccn1)c1nnc(Cc2ccccc2)[nH]1 [Example 49, 5-benzyl-N-(4-(tetrahydro-2H-pyran-4-yl)pyridin-2-yl)-4H-1,2,4-triazole-3-carboxamide] | 1000 to 10000
Cc1ccc(OCCC2CC2)cc1-c1ccnc(NC(=O)c2nnc(Cc3ccccc3)[nH]2)c1 [Example 69, 5-benzyl-N-(4-(5-(2-cyclopropylethoxy)-2-methylphenyl)pyridin-2-yl)-4H-1,2,4-triazole-3-carboxamide] | ≤ 100
COCCCOc1ccc(C(F)(F)F)c(-c2ccnc(NC(=O)c3nnc(CC4CCCCC4)[nH]3)c2)c1 [Example 298, 5-(cyclohexylmethyl)-N-(4-(5-(3-methoxypropoxy)-2-(trifluoromethyl)phenyl)pyridin-2-yl)-4H-1,2,4-triazole-3-carboxamide] | ≤ 100
